Test results reported in ChEMBL document CHEMBL2439971, “Design, synthesis and antiproliferative evaluation of fluorenone analogs with DNA topoisomerase I inhibitory properties” (Bioorg Med Chem, 2013).
Active and inactive are the calls of the source. No cut-off for these calls is given here.

Tests used:
[1] = Cytotoxicity against human NCI60 cells; assay type: functional
[2] = species on record: Homo sapiens; assay: Inhibition of telomerase (unknown origin) at 10 uM TRAP assay
[3] = tested on: CAKI-1; assay: Cytotoxicity against human CAKI-1 cells at 10 uM after 48 hrs by sulforhodamine B assay relative to control; assay type: functional
[4] = tested on: MDA-MB-468; assay: Cytotoxicity against human MDA-MB-468 cells at 10 uM after 48 hrs by sulforhodamine B assay relative to control; assay type: functional
[5] = tested on: T47D; assay: Cytotoxicity against human T47D cells at 10 uM after 48 hrs by sulforhodamine B assay relative to control; assay type: functional
[6] = tested on: BT-549; assay: Cytotoxicity against human BT549 cells at 10 uM after 48 hrs by sulforhodamine B assay relative to control; assay type: functional
[7] = Cytotoxicity against human Hs 578T cells at 10 uM after 48 hrs by sulforhodamine B assay relative to control; assay type: functional
[8] = tested on: MDA-MB-231; assay: Cytotoxicity against human MDA-MB-231 cells at 10 uM after 48 hrs by sulforhodamine B assay relative to control; assay type: functional
[9] = tested on: MCF7; assay: Cytotoxicity against human MCF7 cells at 10 uM after 48 hrs by sulforhodamine B assay relative to control; assay type: functional
[10] = tested on: DU-145; assay: Cytotoxicity against human DU145 cells at 10 uM after 48 hrs by sulforhodamine B assay relative to control; assay type: functional
[11] = tested on: PC-3; assay: Cytotoxicity against human PC3 cells at 10 uM after 48 hrs by sulforhodamine B assay relative to control; assay type: functional
[12] = tested on: UO-31; assay: Cytotoxicity against human UO31 cells at 10 uM after 48 hrs by sulforhodamine B assay relative to control; assay type: functional
[13] = tested on: TK-10; assay: Cytotoxicity against human TK10 cells at 10 uM after 48 hrs by sulforhodamine B assay relative to control; assay type: functional
[14] = tested on: SN12C; assay: Cytotoxicity against human SN12C cells at 10 uM after 48 hrs by sulforhodamine B assay relative to control; assay type: functional
[15] = tested on: RXF 393; assay: Cytotoxicity against human RXF393 cells at 10 uM after 48 hrs by sulforhodamine B assay relative to control; assay type: functional
[16] = tested on: ACHN; assay: Cytotoxicity against human ACHN cells at 10 uM after 48 hrs by sulforhodamine B assay relative to control; assay type: functional
[17] = tested on: 786-0; assay: Cytotoxicity against human 786-0 cells at 10 uM after 48 hrs by sulforhodamine B assay relative to control; assay type: functional
[18] = tested on: NCI/ADR-RES; assay: Cytotoxicity against human NCI/ADR-RES cells at 10 uM after 48 hrs by sulforhodamine B assay relative to control; assay type: functional
[19] = tested on: OVCAR-8; assay: Cytotoxicity against human OVCAR8 cells at 10 uM after 48 hrs by sulforhodamine B assay relative to control; assay type: functional
[20] = tested on: OVCAR-5; assay: Cytotoxicity against human OVCAR5 cells at 10 uM after 48 hrs by sulforhodamine B assay relative to control; assay type: functional
[21] = tested on: OVCAR-4; assay: Cytotoxicity against human OVCAR4 cells at 10 uM after 48 hrs by sulforhodamine B assay relative to control; assay type: functional
[22] = tested on: OVCAR-3; assay: Cytotoxicity against human OVCAR3 cells at 10 uM after 48 hrs by sulforhodamine B assay relative to control; assay type: functional
[23] = tested on: IGROV-1; assay: Cytotoxicity against human IGROV1 cells at 10 uM after 48 hrs by sulforhodamine B assay relative to control; assay type: functional
[24] = tested on: UACC-62; assay: Cytotoxicity against human UACC62 cells at 10 uM after 48 hrs by sulforhodamine B assay relative to control; assay type: functional
[25] = tested on: UACC-257; assay: Cytotoxicity against human UACC257 cells at 10 uM after 48 hrs by sulforhodamine B assay relative to control; assay type: functional
[26] = tested on: SK-MEL-5; assay: Cytotoxicity against human SK-MEL-5 cells at 10 uM after 48 hrs by sulforhodamine B assay relative to control; assay type: functional
[27] = tested on: SK-MEL-28; assay: Cytotoxicity against human SK-MEL-28 cells at 10 uM after 48 hrs by sulforhodamine B assay relative to control; assay type: functional
[28] = tested on: SK-MEL-2; assay: Cytotoxicity against human SK-MEL-2 cells at 10 uM after 48 hrs by sulforhodamine B assay relative to control; assay type: functional
[29] = tested on: MDA-MB-435; assay: Cytotoxicity against human MDA-MB-435 cells at 10 uM after 48 hrs by sulforhodamine B assay relative to control; assay type: functional
[30] = tested on: M14; assay: Cytotoxicity against human M14 cells at 10 uM after 48 hrs by sulforhodamine B assay relative to control; assay type: functional
[31] = tested on: Malme-3M; assay: Cytotoxicity against human MALME-3M cells at 10 uM after 48 hrs by sulforhodamine B assay relative to control; assay type: functional
[32] = tested on: LOX IMVI; assay: Cytotoxicity against human LOXIMVI cells at 10 uM after 48 hrs by sulforhodamine B assay relative to control; assay type: functional
[33] = tested on: SNB-75; assay: Cytotoxicity against human SNB75 cells at 10 uM after 48 hrs by sulforhodamine B assay relative to control; assay type: functional
[34] = tested on: U-251; assay: Cytotoxicity against human U251 cells at 10 uM after 48 hrs by sulforhodamine B assay relative to control; assay type: functional
[35] = tested on: SF-539; assay: Cytotoxicity against human SF539 cells at 10 uM after 48 hrs by sulforhodamine B assay relative to control; assay type: functional
[36] = tested on: SNB-19; assay: Cytotoxicity against human SNB19 cells at 10 uM after 48 hrs by sulforhodamine B assay relative to control; assay type: functional
[37] = tested on: SF-295; assay: Cytotoxicity against human SF295 cells at 10 uM after 48 hrs by sulforhodamine B assay relative to control; assay type: functional
[38] = tested on: SF-268; assay: Cytotoxicity against human SF268 cells at 10 uM after 48 hrs by sulforhodamine B assay relative to control; assay type: functional
[39] = tested on: SW-620; assay: Cytotoxicity against human SW620 cells at 10 uM after 48 hrs by sulforhodamine B assay relative to control; assay type: functional
[40] = tested on: KM12; assay: Cytotoxicity against human KM12 cells at 10 uM after 48 hrs by sulforhodamine B assay relative to control; assay type: functional
[41] = tested on: HT-29; assay: Cytotoxicity against human HT-29 cells at 10 uM after 48 hrs by sulforhodamine B assay relative to control; assay type: functional
[42] = tested on: HCT-15; assay: Cytotoxicity against human HCT15 cells at 10 uM after 48 hrs by sulforhodamine B assay relative to control; assay type: functional
[43] = tested on: HCT-116; assay: Cytotoxicity against human HCT116 cells at 10 uM after 48 hrs by sulforhodamine B assay relative to control; assay type: functional
[44] = tested on: HCC 2998; assay: Cytotoxicity against human HCC2998 cells at 10 uM after 48 hrs by sulforhodamine B assay relative to control; assay type: functional
[45] = tested on: COLO 205; assay: Cytotoxicity against human COLO205 cells at 10 uM after 48 hrs by sulforhodamine B assay relative to control; assay type: functional
[46] = tested on: NCI-H522; assay: Cytotoxicity against human NCI-H522 cells at 10 uM after 48 hrs by sulforhodamine B assay relative to control; assay type: functional
[47] = tested on: NCI-H460; assay: Cytotoxicity against human NCI-H460 cells at 10 uM after 48 hrs by sulforhodamine B assay relative to control; assay type: functional
[48] = tested on: NCI-H322M; assay: Cytotoxicity against human NCI-H322M cells at 10 uM after 48 hrs by sulforhodamine B assay relative to control; assay type: functional
[49] = tested on: NCI-H23; assay: Cytotoxicity against human NCI-H23 cells at 10 uM after 48 hrs by sulforhodamine B assay relative to control; assay type: functional
[50] = tested on: NCI-H226; assay: Cytotoxicity against human NCI-H226 cells at 10 uM after 48 hrs by sulforhodamine B assay relative to control; assay type: functional
[51] = tested on: HOP-92; assay: Cytotoxicity against human HOP92 cells at 10 uM after 48 hrs by sulforhodamine B assay relative to control; assay type: functional
[52] = tested on: HOP-62; assay: Cytotoxicity against human HOP62 cells at 10 uM after 48 hrs by sulforhodamine B assay relative to control; assay type: functional
[53] = Cytotoxicity against human EKVX cells at 10 uM after 48 hrs by sulforhodamine B assay relative to control; assay type: functional
[54] = tested on: A549; assay: Cytotoxicity against human A549 cells at 10 uM after 48 hrs by sulforhodamine B assay relative to control; assay type: functional
[55] = tested on: SR; assay: Cytotoxicity against human SR cells at 10 uM after 48 hrs by sulforhodamine B assay relative to control; assay type: functional
[56] = tested on: RPMI-8226; assay: Cytotoxicity against human RPMI8226 cells at 10 uM after 48 hrs by sulforhodamine B assay relative to control; assay type: functional
[57] = tested on: MOLT-4; assay: Cytotoxicity against human MOLT4 cells at 10 uM after 48 hrs by sulforhodamine B assay relative to control; assay type: functional
[58] = tested on: K562; assay: Cytotoxicity against human K562 cells at 10 uM after 48 hrs by sulforhodamine B assay relative to control; assay type: functional
[59] = tested on: HL-60(TB); assay: Cytotoxicity against human HL-60(TB) cells at 10 uM after 48 hrs by sulforhodamine B assay relative to control; assay type: functional
[60] = tested on: CCRF-CEM; assay: Cytotoxicity against human CCRF-CEM cells at 10 uM after 48 hrs by sulforhodamine B assay relative to control; assay type: functional
[61] = tested on: PC-3; assay: Cytotoxicity against human PC3 cells after 48 hrs by sulforhodamine B assay; assay type: functional, cell-based; conditions: PC-3, 48 h

O=C(CCN1CCCC1)Nc1ccc2c(c1)C(=O)c1cc(NC(=O)CCN3CCCC3)ccc1C2=O
GI50 [1]: 3.89 µM

CCNCCC(=O)Nc1ccc2c(c1)C(=O)c1cc(NC(=O)CCNCC)ccc1-2
inhibition [2]: inactive
Activity [3]: 96.47%
Activity [4]: 96.83%
Activity [5]: 108.97%
Activity [6]: 119.2%
Activity [7]: 98.9%
Activity [8]: 105.71%
Activity [9]: 87.69%
Activity [10]: 120.33%
Activity [11]: 101.42%
Activity [12]: 102.42%
Activity [13]: 103.34%
Activity [14]: 94.35%
Activity [15]: 105.09%
Activity [16]: 120.72%
Activity [17]: 102.08%
Activity [18]: 96.39%
Activity [19]: 103.63%
Activity [20]: 110.42%
Activity [21]: 105.01%
Activity [22]: 120.25%
Activity [23]: 108.06%
Activity [24]: 100.48%
Activity [25]: 111.63%
Activity [26]: 102.17%
Activity [27]: 105.31%
Activity [28]: 126.91%
Activity [29]: 97.63%
Activity [30]: 113.99%
Activity [31]: 101.61%
Activity [32]: 97.55%
Activity [33]: 92.33%
Activity [34]: 92.86%
Activity [35]: 116.97%
Activity [36]: 100.42%
Activity [37]: 88.95%
Activity [38]: 121.13%
Activity [39]: 101.71%
Activity [40]: 114.64%
Activity [41]: 104.19%
Activity [42]: 108.19%
Activity [43]: 109.77%
Activity [44]: 104.87%
Activity [45]: 110.13%
Activity [46]: 103.53%
Activity [47]: 109.14%
Activity [48]: 100.96%
Activity [49]: 98.77%
Activity [50]: 105.54%
Activity [51]: 87.24%
Activity [52]: 105.98%
Activity [53]: 102.12%
Activity [54]: 94.72%
Activity [55]: 101.47%
Activity [56]: 104.16%
Activity [57]: 98.76%
Activity [58]: 92.16%
Activity [59]: 104.46%
Activity [60]: 101.3%
IC50 [61]: > 30 µM
